Data as given in patent US11793845B2, “Composition for ameliorating peripheral sensory neuropathy” (KINKI UNIVERSITY, priority 2016, dated 2023).

Key:
Assay type in all cases: in vivo
[1] = test system: Peripheral Sensory Neuropathy Induced by Oxaliplatin in Mice; experiment: von Frey test, oxaliplatin-induced peripheral sensory neuropathy
Method: (§4) Male Balb/c mice of 6 to 7 weeks old were used. The mice were divided into three groups: a control group, an oxaliplatin administration group, and an oxaliplatin and Lentinus edodes mycelium extract administration group (oxaliplatin+Lentinus edodes mycelium extract administration group). Oxaliplatin was administered to each mouse once a day at a dose of 6 mg/kg. Further, the Lentinus edodes mycelium extract was administered to each mouse once a day at a dose of 2 g/kg.
(§5) Further, the number of times of administration was set to once a week (on Day 0, Day 7, and Day 14) for oxaliplatin and daily (from Day 0 to Day 15) for the Lentinus edodes mycelium extract in both the von Frey test and the cold plate test below.
The higher number of times of avoidance means that the mouse avoids the stimulation by the filament more. […] When the difference with the control group was determined to be significant using a significance level of 5%, the data were marked by “*”.

[2] = test system: Peripheral Sensory Neuropathy Induced by Oxaliplatin in Mice; experiment: cold plate test, oxaliplatin-induced peripheral sensory neuropathy; settings: duloxetine 30 mg/kg daily
Method: as §4, §5
Oxaliplatin was administered to each mouse once a day at a dose of 6 mg/kg. Further, the Lentinus edodes mycelium extract was administered to each mouse once a day at a dose of 2 g/kg three days or six days after the administration of oxaliplatin. These groups are referred to as “Lentinus edodes mycelium extract 3-day delayed administration group” and “Lentinus edodes mycelium extract 6-day delayed administration group”, respectively.
Further, groups in which duloxetine was administered after the administration of oxaliplatin were prepared for comparison.

[3] = test system: Peripheral Sensory Neuropathy Induced by Vincristine in Mice; experiment: cold plate test, vincristine-induced peripheral sensory neuropathy; settings: duloxetine 30 mg/kg daily
Method: (§1) The effect of the Lentinus edodes mycelium extract on the paresthesia to cold stimulation was tested by performing the cold plate test. The mice in the three groups in the above (1) were put on a cold plate set to 10° C. and a response time for avoidance (a latency) was measured. The shorter latency means that the mouse avoids the cold stimulation of the cold plate more.
(§2) In the present test, the mice were divided into three groups by a difference in test objects. As in Example 1, male Balb/c mice of 6 to 7 weeks old were used. The mice were divided into a total of three groups, a control group, a vincristine
administration group, and a vincristine and Lentinus edodes mycelium extract administration group (vincristine+Lentinus edodes mycelium extract administration group).
Vincristine was administered to each mouse once a day at a dose of 0.2 mg/kg. Further, the Lentinus edodes mycelium extract was administered to each mouse once a day at a dose of 2 g/kg.
Evaluation was performed in the same manner as in the test with oxaliplatin in Example 1. Referring to FIG. 6, the horizontal axis indicates the elapsed time after administration (days) and the vertical axis indicates the avoidance response time (seconds). Open circles with a solid line represent the control group. Filled circles with a solid line represent the group in which only vincristine was administered. Open squares with a dash line represent the group in which vincristine and the Lentinus edodes mycelium extract were administered at the same time (vincristine+Lentinus edodes mycelium extract administration group). When the difference with the control group was determined to be significant using a significance level of 5%, the data were marked by “*”.
(§3) In the present test, the mice were divided into six groups by a difference in test objects. As in Example 1, male Balb/c mice of 6 to 7 weeks old were used. […]

[4] = test system: Peripheral Sensory Neuropathy Induced by Bortezomib in Mice; experiment: cold plate test, bortezomib-induced peripheral sensory neuropathy; settings: duloxetine 30 mg/kg daily
Method: as §1
as §2, with “bortezomib administration group, and a bortezomib and Lentinus edodes mycelium extract administration group (bortezomib+Lentinus edodes mycelium extract administration group).” for “vincristine”
Bortezomib was administered to each mouse once a day at a dose of 1 mg/kg. Further, the Lentinus edodes mycelium extract was administered to each mouse once a day at a dose of 2 g/kg.
Evaluation was performed in the same manner as in the test with oxaliplatin in Example 1. Referring to FIG. 8, the horizontal axis indicates the elapsed time after administration (days) and the vertical axis indicates the avoidance response time (seconds). Open circles with a solid line represent the control group. Filled circles with a solid line represent the group in which only bortezomib was administered. Open squares with a dash line represent the group in which bortezomib and the Lentinus edodes mycelium extract were administered at the same time (bortezomib+Lentinus edodes mycelium extract administration groups). When the difference with the control group was determined to be significant using a significance level of 5%, the data were marked by “*”.
as §3

## CNCC[C@H](Oc1cccc2ccccc12)c1cccs1 [duloxetine]
[1]; duloxetine 30 mg/kg daily Day 3 to Day 23 (3-day delayed) after oxaliplatin 6 mg/kg weekly
  avoidance score compared with oxaliplatin administration group, von Frey test: almost the same score as that in the oxaliplatin administration group
[1]; duloxetine 30 mg/kg daily Day 6 to Day 23 (6-day delayed) after oxaliplatin 6 mg/kg weekly
  avoidance score, von Frey test: same tendency as that in the duloxetine 3-day delayed administration group
[2]; 3-day delayed after oxaliplatin
  latency compared with oxaliplatin administration group, cold plate test: almost the same as that in the oxaliplatin administration group
[2]; 6-day delayed after oxaliplatin
  latency, cold plate test: same tendency as that in the duloxetine 3-day delayed administration group
[3]; 3-day delayed after vincristine
  latency compared with vincristine administration group, cold plate test: almost the same as that in the vincristine administration group
[3]; 6-day delayed after vincristine
  latency, cold plate test: same tendency as that in the duloxetine 3-day delayed administration group
[4]; 3-day delayed after bortezomib
  latency compared with bortezomib administration group, cold plate test: almost the same as that in the bortezomib administration group
[4]; 6-day delayed after bortezomib
  latency, cold plate test: same tendency as that in the duloxetine 3-day delayed administration group
